Results taken from US9216991B2 (Ares Trading S.A., priority 2012, dated 2015).
Where a name gives a salt, the structure may show the parent alone.

Biological target: T1, IRAK4 (Homo sapiens, UniProt Q9NWZ3)
T1 construct: His (N); TEV cleavage site (N)
T1 sequence (Q9NWZ3 1-460): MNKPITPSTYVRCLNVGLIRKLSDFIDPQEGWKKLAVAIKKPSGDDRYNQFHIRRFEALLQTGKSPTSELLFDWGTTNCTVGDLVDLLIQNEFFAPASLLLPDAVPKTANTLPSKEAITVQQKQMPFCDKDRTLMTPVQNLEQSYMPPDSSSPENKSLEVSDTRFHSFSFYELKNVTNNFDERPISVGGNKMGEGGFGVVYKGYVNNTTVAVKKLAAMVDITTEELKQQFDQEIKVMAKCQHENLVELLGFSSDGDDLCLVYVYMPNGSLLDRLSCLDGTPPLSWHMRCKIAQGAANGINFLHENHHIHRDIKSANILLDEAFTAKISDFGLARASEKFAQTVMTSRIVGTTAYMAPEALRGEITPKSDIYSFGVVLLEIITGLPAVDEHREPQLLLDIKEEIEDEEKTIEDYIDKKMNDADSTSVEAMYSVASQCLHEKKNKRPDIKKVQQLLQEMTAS
Test: IRAK4 Enzymatic Assay
Assay type: biochemical
Settings: His-TEV-IRAK4 20 ng/well, ATP 2 μM, STK1-biotin peptide 300 nM, 3 hours at 30° C., FlashPlate radioactivity
Procedure, shortened: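 Recombinant His-TEV-tagged IRAK4 (20 ng/well) phosphorylates biotinylated STK1 peptide (300 nM) with 2 μM ATP plus [^33P]ATP, 3 h at 30 °C in pH 7.0 HEPES buffer with MgCl2 and MnCl2; compounds tested 20 μM to 1 nM. Reaction stopped with EDTA; incorporated radioactivity counted on streptavidin FlashPlates.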

IC50 | SMILES
100 to 1000 nM | Cn1cc(-c2cccc(-c3ncc(-c4cnn(CC(=O)N5CCC5)c4)cn3)c2)cn1 [Example 77, 1-Azetidin-1-yl-2-(4-{2-[3-(1-methyl-1H-pyrazol-4-yl)-phenyl]-pyrimidin-5-yl}-pyrazol-1-yl)-ethanone]
< 100 nM | Cn1cc(-c2cccc(-c3ncc(-c4cnn(C5CCOC6(CCOCC6)C5)c4)cn3)c2)cn1 (centres unmarked) [Example 267, 5-[1-(1,9-Dioxa-spiro[5.5]undec-4-yl)-1H-pyrazol-4-yl]-2-[3-(1-methyl-1H-pyrazol-4-yl)-phenyl]-pyrimidine]
< 100 nM | CN(C)C[C@H]1CC[C@H](n2cc(-c3cnc(-c4cccc(-c5cnn(C)c5)c4)nc3)cn2)CC1 [Example 232, Trans-dimethyl-[4-(4-{2-[3-(1-methyl-1H-pyrazol-4-yl)-phenyl]-pyrimidin-5-yl}-pyrazol-1-yl)-cyclohexylmethyl]-amine]
100 to 1000 nM | Cn1cc(-c2cccc(-c3ncc(-c4cnn(C5CCN(C(=O)CO)CC5)c4)cn3)c2)cn1 [Example 106, 2-Hydroxy-1-[4-(4-{2-[3-(1-methyl-1H-pyrazol-4-yl)-phenyl]-pyrimidin-5-yl}-pyrazol-1-yl)-piperidin-1-yl]-ethanone]
100 to 1000 nM | CC(C)[C@H](N)C(=O)N1CCC(n2cc(-c3cnc(-c4cccc(-c5cnn(C)c5)c4)nc3)cn2)CC1 [Example 124, (S)-2-Amino-3-methyl-1-[4-(4-{2-[3-(1-methyl-1H-pyrazol-4-yl)-phenyl]-pyrimidin-5-yl}-pyrazol-1-yl)-piperidin-1-yl]-butan-1-one]
< 100 nM | C[C@H](CO)NC(=O)[C@H]1CC[C@H](n2cc(-c3cnc(-c4cccc(-c5cnn(C)c5)c4)nc3)cn2)CC1 [Example 199, Trans-4-(4-{2-[3-(1-Methyl-1H-pyrazol-4-yl)-phenyl]-pyrimidin-5-yl}-pyrazol-1-yl)-cyclohexanecarboxylic acid ((R)-2-hydroxy-1-methyl-ethyl)-amide]
1000 to 5000 nM | Cc1nn(C)cc1-c1cccc(-c2ncc(-c3cnn(C4CCNCC4)c3)cn2)c1 [Example 14, 2-[3-(1,3-Dimethyl-1H-pyrazol-4-yl)-phenyl]-5-(1-piperidin-4-yl-1H-pyrazol-4-yl)-pyrimidine hydrochloride]
< 100 nM | Cn1cc(-c2cccc(-c3ncc(-c4cnn([C@H]5CC[C@H](OCC6CC6)CC5)c4)cn3)c2)cn1 [Example 220, trans-5-[1-(4-Cyclopropylmethoxy-cyclohexyl)-1H-pyrazol-4-yl]-2-[3-(1-methyl-1H-pyrazol-4-yl)-phenyl]-pyrimidine]
100 to 1000 nM | CN(C)C(=O)C1CC2(C1)CC(n1cc(-c3cnc(-c4cccc(-c5cnn(C)c5)c4)nc3)cn1)C2 (centres unmarked) [Example 222, 6-(4-{2-[3-(1-Methyl-1H-pyrazol-4-yl)-phenyl]-pyrimidin-5-yl}-pyrazol-1-yl)-spiro[3.3]heptane-2-carboxylic acid dimethylamide]
100 to 1000 nM | Cn1cc(-c2cccc(-c3ncc(-c4cnn(C5CCOC5=O)c4)cn3)c2)cn1 (centres unmarked) [Example 129, 3-(4-{2-[3-(1-Methyl-1H-pyrazol-4-yl)-phenyl]-pyrimidin-5-yl}-pyrazol-1-yl)-dihydro-furan-2-one]
< 100 nM | Cn1cc(-c2cccc(-c3ncc(-c4cnn(C5CCCNCC5)c4)cn3)c2)cn1 (centres unmarked) [Example 172, 4-(4-{2-[3-(1-Methyl-1H-pyrazol-4-yl)-phenyl]-pyrimidin-5-yl}-pyrazol-1-yl)-azepane]
1000 to 5000 nM | CN(C)CCn1cc(-c2cnc(-c3cccc(-c4cnn(C)c4)c3)nc2)cn1 [Example 11, Dimethyl-[2-(4-{2-[3-(1-methyl-1H-pyrazol-4-yl)-phenyl]-pyrimidin-5-yl}-pyrazol-1-yl)-ethyl]-amine]
< 100 nM | CN(C)C(=O)C1CCC(n2cc(-c3cnc(-c4cccc(-c5cnn(C)c5)c4)nc3)cn2)CC1 (mixture of isomers) [Example 121, 4-(4-{2-[3-(1-Methyl-1H-pyrazol-4-yl)-phenyl]-pyrimidin-5-yl}-pyrazol-1-yl)-cyclohexanecarboxylic acid dimethylamide]
< 100 nM | Cn1cc(-c2cccc(-c3ncc(-c4cnn([C@H]5CC[C@H](N6CCOCC6=O)CC5)c4)cn3)c2)cn1 [Example 254, 4-[4-(4-{2-[3-(1-Methyl-1H-pyrazol-4-yl)-phenyl]-pyrimidin-5-yl}-pyrazol-1-yl)-cyclohexyl]-morpholin-3-one]
< 100 nM | CC(C)N(C)C(=O)[C@H]1CC[C@H](n2cc(-c3cnc(-c4cccc(-c5cnn(C)c5)c4)nc3)cn2)CC1 [Example 200, Trans-4-(4-{2-[3-(1-Methyl-1H-pyrazol-4-yl)-phenyl]-pyrimidin-5-yl}-pyrazol-1-yl)-cyclohexanecarboxylic acid isopropyl-methyl-amide]
< 100 nM | CO[C@H]1CC[C@@H](n2cc(-c3cnc(-c4cccc(-c5cnn(C)c5)c4)nc3)cn2)CC1 [Example 252, Cis-5-[1-(4-Methoxy-cyclohexyl)-1H-pyrazol-4-yl]-2-[3-(1-methyl-1H-pyrazol-4-yl)-phenyl]-pyrimidine]
1000 to 5000 nM | Cn1cc(-c2cccc(-c3ncc(-c4cn(C5CCOCC5)nc4C(N)=O)cn3)c2)cn1 [Example 137, 4-{2-[3-(1-Methyl-1H-pyrazol-4-yl)-phenyl]-pyrimidin-5-yl}-1-(tetrahydro-pyran-4-yl)-1H-pyrazole-3-carboxylic acid amide]
100 to 1000 nM | c1ccc(Cn2cc(-c3cccc(-c4ncc(-c5cnn(C6CCNCC6)c5)cn4)c3)cn2)cc1 [Example 21, 2-[3-(1-Benzyl-1H-pyrazol-4-yl)-phenyl]-5-(1-piperidin-4-yl-1H-pyrazol-4-yl)-pyrimidine hydrochloride]
< 100 nM | COCCO[C@H]1CC[C@H](n2cc(-c3cnc(-c4cccc(-c5cnn(C)c5)c4)nc3)cn2)CC1 [Example 217, trans-5-{1-[4-(2-Methoxy-ethoxy)-cyclohexyl]-1H-pyrazol-4-yl}-2-[3-(1-methyl-1H-pyrazol-4-yl)-phenyl]-pyrimidine]
100 to 1000 nM | CN(C)C(=O)[C@H]1CC[C@H](n2cc(-c3cnc(-c4cccc(-c5ccnnc5)c4)nc3)cn2)CC1 [Example 233, Trans-4-{4-[2-(3-Pyridazin-4-yl-phenyl)-pyrimidin-5-yl]-pyrazol-1-yl}-cyclohexanecarboxylic acid dimethylamide]
1000 to 5000 nM | Cn1cc(-c2cccc(-c3ncc(-c4cnn(CCC(=O)N5CCOCC5)c4)cn3)c2)cn1 [Example 83, 3-(4-{2-[3-(1-Methyl-1H-pyrazol-4-yl)-phenyl]-pyrimidin-5-yl}-pyrazol-1-yl)-1-morpholin-4-yl-propan-1-one]
100 to 1000 nM | FCC(CF)n1cc(-c2cccc(-c3ncc(-c4cnn(C5CCNCC5)c4)cn3)c2)cn1 [Example 16, 2-{3-[1-(2-Fluoro-1-fluoromethyl-ethyl)-1H-pyrazol-4-yl]-phenyl}-5-(1-piperidin-4-yl-1H-pyrazol-4-yl)-pyrimidine hydrochloride]
100 to 1000 nM | Cn1cc(-c2cccc(-c3ncc(-c4cnn([C@@H]5CCCNC5)c4)cn3)c2)cn1 [Example 183, 2-[3-(1-Methyl-1H-pyrazol-4-yl)-phenyl]-5-((R)-1-piperidin-3-yl-1H-pyrazol-4-yl)-pyrimidine]
